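Interpolation was linear, between the two tested concentrations surrounding the appropriate level; five concentrations were tested over 48 hours in 96-well plates. At the GI50, growth is halved.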 Activity calls are given as the source filed them. Cut-off read from the data, not from the text of the source: active = GI50 up to about 1.1 µM and inactive = higher.
Legend:
Assay in all cases: inhibition of tumour cell growth, NCI panel, 48 h
[1] = system: 786-0
[2] = system: A498
[3] = system: ACHN
[4] = system: CCRF-CEM
[5] = system: DU-145
[6] = system: K562
[7] = system: MDA-N
[8] = system: NCI-H226
[9] = system: NCI-H23
[10] = system: NCI-H460
[11] = system: OVCAR-8
[12] = system: RPMI-8226
[13] = system: RXF 393
[14] = system: SF-268
[15] = system: SK-MEL-28
[16] = system: SN12C
[17] = system: SNB-19
[18] = system: SNB-75
[19] = system: T47D
[20] = system: UACC-257

Measured: GI50

CS(=O)(=O)Nc1ccc(NCc2c[nH]c3ccc4ncccc4c23)cc1
inactive: [1] 29.9 µM | [2] 20.3 µM | [3] 20.6 µM | [4] 18.8 µM | [5] 26.1 µM | [6] 18.7 µM | [7] 18 µM | [8] 26.2 µM | [9] 14.1 µM | [10] 30 µM | [11] 34 µM | [12] 11 µM | [13] 23.9 µM | [14] 23.7 µM | [15] 26.1 µM | [16] 25.8 µM | [17] 49.1 µM | [18] 30.3 µM | [19] 20.6 µM | [20] 23.1 µM

COc1cccc(C2c3cc4c(cc3OC(N3CCCCC3)C2C)OCO4)c1OC (stereo not given)
inactive: [1] 72.1 µM | [2] 9.42 µM | [3] 3.19 µM | [4] 3.46 µM | [5] 3.64 µM | [6] 3.63 µM | [7] 11.2 µM | [8] 3.93 µM | [9] 14.3 µM | [10] 4.46 µM | [11] > 100 µM | [12] 3.44 µM | [13] 4.08 µM | [14] 8.2 µM | [15] 16.3 µM | [16] 5.73 µM | [17] 14.8 µM | [18] 5.52 µM | [19] 4.1 µM | [20] 5.94 µM

Reference: ChEMBL document CHEMBL1201862, “PubChem BioAssay data set” (2004)
